Values quoted from earlier work, collected in US10272040B2, “Liposomal formulation for ocular drug delivery” (Nanyang Technological University, priority 2010, dated 2019).

Assays:
[1] = other drugs in liposomes
[2] = SRC PhysProp Database

Compound | Drug:Lipid mole ratio, Literature [1] | log P [2]
N.N.[Cl][Pt][Cl] [cisplatin] | 0.05 | 
CC(C)OC(=O)CCC/C=C\C[C@@H]1[C@@H](CC[C@@H](O)CCc2ccccc2)[C@H](O)C[C@@H]1O [latanoprost] |  | 4.4
